Entries after “also recorded” stand apart in the source; their conditions may differ.
What was measured:
[1] = test system: influenza virions or infected cell (MDCK); conditions: intermittent (30 minutes every 4 hours) 160 ppm exogenous gaseous NO; MDCK cell model; cited from earlier work
Enterobacter sp. = conditions: 200 ppm gNO; cited from earlier work
Klebsiella sp. #3 = conditions: 200 ppm gNO; cited from earlier work
[2] = test system: infants with acute bronchiolitis; experiment: Efficacy (LOS, time to SpO2 >=92%, time to clinical score <=5) of intermittent inhalations of 160 ppm NO in infants with acute bronchiolitis; assay type: in vivo, human
Method: The study was a randomized, prospective, single center, double blind study of 2-11 month old hospitalized infants with acute bronchiolitis (FIG. 1).
Subjects were screened within 4 hours of admission and randomized (1:1) to receive intermittent inhalations of 160 ppm NO along with standard treatment (NO group) or intermittent inhalations of 02/air mixture and standard treatment (control group), for a maximum of 25 inhalations.
Secondary Outcome: Efficacy parameters: LOS calculated in hours, starting from first inhalation until: 1) Oxygen saturation (SpO2) ≥92% in room-air; 2) Clinical score ≤5 (15, 16) and; 3) blinded physician decision of “ready for discharge”.
The secondary outcome were efficacy measures, including LOS, time to achieve ≥92% SaO2, and time to achieve a clinical score of ≤5. LOS in hours was defined as the time between first treatment until the time the infant was “ready for discharge”, defined as 1. Room air saturation of ≥92%; 2. Clinical severity symptom score (Table E1) of ≤5; 3. A clinical decision made by a blinded pediatrician.
A severity symptom score, was used to determine the severity of each infant (Table E1). The score was comprised of four components: Respiratory rate, use of accessory muscles, wheezes and crackles on auscultation, and % room-air oxygen saturation (SpO2). Each component is given 0 to 3 points, with a total possible score of 12. Infants with a score of <6 were determined as mild and were not included in the study, while infants with a score of >10 were determined as very severe and were also excluded.
Each patient was given 5 inhalations a day of NO (treatment group) or oxygen (control group), along with the standard supportive treatment, for a maximum of 25 inhalations (based on phase I safety data). Each participant was examined and evaluated using the severity symptom score by a blinded pediatricians every […] (9 am and 3 pm). When the room-air SpO2 reached 92%, and the score was ≤5, and the patient was assessed as “ready for discharge”, the treatment was discontinued.
Post-hoc subgroup analyses of subjects with a LOS ≤24 hours and >24 hours were also conducted for the key post-hoc secondary endpoints, for the following reasons: based on preclinical studies, the anti-microbial treatment effect of NO is expected to take approximately 2.5 hours of exposure (i.e., 24 hours treatment). A third of the subjects were discharged after <24 hours in hospital. A longer LOS is expected to correlate with a higher disease severity, and therefore any treatment effect should be more evident in the subgroup LOS >24 hours.
LOS was calculated in hours from the first inhalation treatment to “ready for discharge” defined as physician decision to discharge.
Time to achieve room-air SpO2 of ≥92% (improvement in oxygenation) leading to discharge was calculated from first treatment to the first time of room-air SpO2 of ≥92% sustained until discharge. Time to clinical score of ≤5 was calculated from the first inhalation to the first time the subject reached a clinical score of ≤5.
The following statistical tests were used in the analysis of the data presented in this study: 1. The Paired T-Test was applied for testing the statistical significance of the changes from baseline for quantitative variables within each study group; 2. The two-sample T-test or Non-parametric Wilcoxon Rank Sum test or median tests were used as appropriate for analyzing differences between the study groups in quantitative parameters; 3. The Chi-square test was applied for testing the statistical significance of the differences in frequency of categorical variables between the study groups; 4. Survival analysis using a Kaplan-Meier survival function curve was applied for testing the statistical significance of the difference between the study groups in the following endpoints: LOS, from first inhalation to ready to discharge, time to achieve 92% saturation leading to discharge, and time to achieve clinical score ≤5. […]

S. aureus (Clinical) = conditions: 200 ppm gNO; cited from earlier work
E. coli = conditions: 200 ppm gNO; cited from earlier work
Klebsiella sp.#2 = conditions: 200 ppm gNO; cited from earlier work
Acinetobacter sp. = conditions: 200 ppm gNO; cited from earlier work
Mycobacterium smegmatis = conditions: 200 ppm gNO; cited from earlier work

SMILES: [N]=O [NO, nitric oxide]
- Effect on influenza viral replication and infectivity [1]: reduced not just viral replication, but also its infectivity
- +2.5 Log10 (Enterobacter sp.): 5.3 hours
- LD100 (Enterobacter sp.): 6 h
- Latent Period (Enterobacter sp.): 4 h
- +2.5 Log10 (Klebsiella sp. #3): 5.1 hours
- LD100 (Klebsiella sp. #3): 6 h
- Latent Period (Klebsiella sp. #3): 3 h
- Time to first 92% O2 saturation sustained to discharge ([2]; ITT (N=42), NO group, P=0.517 vs control): 35.50 ± 33.73 h
- Mean time to reach clinical score of ≤5 ([2]; ITT (N=43), NO group, P=0.621 vs control): 32.83 ± 30.61 h
- Median LOS ([2]; ITT including the 16 infants discharged within <24 hours, P=0.65 vs control): 40 h
- Length of stay (LOS), mean±SD ([2]; ITT, 43 subjects, NO group, P=0.86 vs control): 43.3 ± 32.95 h
- Hazard ratio (HR), time to first sustained 92% O2 saturation ([2]; Kaplan Meier, PP, LOS >24 hours, 95% CI=0.139, 0.921, P=0.028): 0.358
- Hazard ratio (HR), time to clinical score ≤5 ([2]; Kaplan-Meier, ITT, LOS >24 hours, 95% CI: 0.161, 0.949, log rank P=0.033): 0.391
- Median LOS, post-hoc subgroup ([2]; post-hoc ITT, LOS >24 hours subgroup, P=0.014 vs control): 41.92 h
- Clinical benefit of NO versus standard treatment (LOS, time to SpO2 ≥92%, time to clinical score ≤5) ([2]; post-hoc, subgroup LOS >24 hours): statistically significant clinical benefits; also recorded: statistically significant in favor of the NO group; also recorded: statistically significant treatment benefit
- +2.5 Log10 (S. aureus (Clinical)): 3.7 hours
- LD100 (S. aureus (Clinical)): 4 h
- Latent Period (S. aureus (Clinical)): 3 h
- +2.5 Log10 (E. coli): 4.2 hours
- LD100 (E. coli): 5 h
- Latent Period (E. coli): 3 h
- +2.5 Log10 (Klebsiella sp.#2): 4.1 hours
- LD100 (Klebsiella sp.#2): 5 h
- Latent Period (Klebsiella sp.#2): 2 h
- +2.5 Log10 (Acinetobacter sp.): 5 hours
- LD100 (Acinetobacter sp.): 6 h
- Latent Period (Acinetobacter sp.): 4 h
- +2.5 Log10 (Mycobacterium smegmatis): 9.2 hours
- LD100 (Mycobacterium smegmatis): 10 h
- Latent Period (Mycobacterium smegmatis): 7 h

— US12274830B2, “Nitric oxide inhalation therapy for infants with bronchiolitis” (BEYOND AIR LTD, priority 2015, dated 2025)
